# What was measured:
# Dermacentor variabilis = assay: In vitro contact test with adult hard ticks (Dermacentor variabilis); settings: read-out: acaricidal activity; for pest or weed control at 1 µg/cm2, 1 µg/cm2: dose 1 μg/cm^2, 48 h; for pest or weed control at 0.2 µg/cm2, 0.2 µg/cm2: dose 0.2 μg/cm^2, 48 h
# In short: (§1)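 Acaricidal activity = % ticks dead or moribund after 48 h contact with acetone-deposited compound on vial walls (e.g., 900 ppm solution → 5 μg/cm^2). Ambient conditions for R. sanguineus, 21° C./85% rel. hum. for other species; heat challenge at 45-50° C. separated climbers from moribund ticks.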
# Ctenocephalides felis [1] = assay: Ctenocephalides felis in-vitro feeding test with fleas (CTECFE oral); settings: 48 hours, read-out: insecticidal feeding activity; for pest or weed control at 0.16 ppm: dose 0.16 ppm in citrated cattle blood; for pest or weed control at 0.8 ppm: dose 0.8 ppm in citrated cattle blood; for pest or weed control at 4 ppm: dose 4 ppm in citrated cattle blood; for pest or weed control at 0.032 ppm: dose 0.032 ppm in citrated cattle blood
# In short: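 Scored as percent fleas killed (0–100%) 48 hours after feeding began. Compound, dissolved in DMSO and diluted into citrated cattle blood, was offered via a parafilm membrane to roughly 20 adult male and female C. felis at about 37° C.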
# Amblyomma americanum = assay: In vitro contact test with hard ticks (Amblyomma americanum nymphs); settings: read-out: acaricidal activity; for pest or weed control at 0.2 µg/cm2, 0.2 µg/cm2: dose 0.2 μg/cm^2, 48 h; for pest or weed control at 1 µg/cm2, 1 µg/cm2: dose 1 μg/cm^2, 48 h
# In short: as §1
# Spodoptera litura = assay: Insecticidal testing against common cutworm; type: in vivo; settings: foliar, 144 h, concentration 100 ppm, cabbage leaf dip, second-stage larvae, after 6 days, read-out: pesticidal rate
# Text: Insecticidal Testing Against Common Cutworm (Spodoptera litura)
# Plutella xylostella = assay: Insecticidal testing against diamondback moth; type: in vivo; settings: foliar, 144 h, concentration 100 ppm, cabbage leaf dip, third-stage larvae, after 6 days, read-out: pesticidal rate
# Text: Insecticidal Testing Against Diamondback Moth (Plutella xylostella)
# [2] = tested on: Rhipicephalus (Boophilus) microplus; assay: In vitro injection test with Rhipicephalus (Boophilus) microplus (BOOPMI Inj); settings: 168 h, laid fertile eggs after 7 days, read-out: acaricidal activity; for pest or weed control at 32 ng: dose 0.032 μg/animal injected; for pest or weed control at 0.00016 mg: dose 0.16 μg/animal injected; for pest or weed control at 0.0008 mg: dose 0.8 μg/animal injected
# In short: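 Five engorged adult females each get a 1 μl abdominal injection of compound dissolved and diluted in DMSO. Kept 7 days at 28° C./85% rel. hum.; percent activity rates egg laying and egg fertility (0% all fertile, 100% none laid or infertile).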
# Rhipicephalus sanguineus = assay: In vitro contact test with adult hard ticks (Rhipicephalus sanguineus); settings: read-out: acaricidal activity; for pest or weed control at 0.2 µg/cm2, 0.2 µg/cm2: dose 0.2 μg/cm^2, 48 h; for pest or weed control at 1 µg/cm2, 1 µg/cm2: dose 1 μg/cm^2, 48 h; for pest or weed control at 0.04 µg/cm2, 0.04 µg/cm2: dose 0.04 μg/cm^2, 48 h
# In short: as §1
# Laodelphax striatellus = assay: Insecticidal testing against small brown planthopper; type: in vivo; settings: 144 h, concentration 100 ppm, sprayed rice seedlings, after 6 days, read-out: pesticidal rate
# Method: Insecticidal Testing Against Small Brown Planthopper (Laodelphax striatellus)
# An additional test was carried out with 10 small brown planthoppers by preparing an acetone solution of the testing compound diluted to a predetermined concentration, spraying the solution onto rice seedlings and air drying the rice seedlings. The medicament was all used as received. The rice seedlings were placed in a constant-temperature room at 25° C., and the survival rate was investigated after 6 days. The test was carried out by means of one group of 10 pests.
# Ctenocephalides felis [3] = assay: In vitro contact test with fleas; settings: read-out: insecticidal activity; for pest or weed control at 0.2 µg/cm2, 0.2 µg/cm2: dose 0.2 μg/cm^2, dead or moribund fleas after 48 h; for pest or weed control at 1 µg/cm2, 1 µg/cm2: dose 1 μg/cm^2, dead or moribund fleas after 48 h
# In short: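 Activity is the percentage of fleas dead or moribund at 48 h, judged by immobility or uncoordinated movement after tapping. Tubes were coated by evaporating acetone solutions (900 ppm gives 5 μg/cm^2), then held 5-10 adult fleas of both sexes at room temperature and ambient humidity.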
# Ixodes ricinus = assay: In vitro contact test with adult hard ticks (Ixodes ricinus); settings: read-out: acaricidal activity; for pest or weed control at 0.2 µg/cm2, 0.2 µg/cm2: dose 0.2 μg/cm^2, 48 h; for pest or weed control at 1 µg/cm2, 1 µg/cm2: dose 1 μg/cm^2, 48 h; for pest or weed control at 5 µg/cm2, 5 µg/cm2: dose 5 μg/cm^2, 48 h
# Method: In Vitro Contact Tests with Adult Hard Ticks
# In vitro contact tests with ticks were conducted with adult males and females of Rhipicephalus sanguineus, Ixodes ricinus, or Dermacentor variabilis, or nymphs of Amblyomma americanum.
# For the coating of the test vials, the test substance was dissolved and diluted in acetone p.a. to the desired concentration. The solution was then homogeneously applied to the inner wall and base of a glass vial by turning and rocking on an orbital shaker until complete evaporation of the solvent. For example, with a 900 ppm solution of test substance, an area-based dose of 5 μg/cm^2 was achieved.
# After the solvent was completely evaporated, 5-10 adult ticks were put in each coated test vial, which was then sealed with a perforated plastic lid and incubated in a horizontal position in the dark at room temperature and ambient humidity (Rhipicephalus sanguineus) or in a climate-controlled cabinet (Ixodes ricinus, Dermacentor variabilis, Amblyomma americanum [21° C., 85% rel. hum.]). Acaricidal activity against the respective tick species was determined after 48 h. For this, ticks were collected to the base of the test vial by gentle knocking, and test vials were then incubated on a hotplate at 45-50° C. for no longer than 5 min. Ticks which remained motionless on the base of the test vial or moved uncoordinated without deliberately climbing up to avoid the heat were considered dead or moribund, respectively.
# A substance was judged to have good acaricidal activity against the respective tick species when at least 80% of ticks were found dead or moribund at a dose of the substance of g/cm^2. An acaricidal activity of 100% means all ticks were dead or moribund. An acaricidal activity of 0% means none of the ticks was found dead or moribund.
Compound,"pest or weed control at 1 µg/cm2, 1 µg/cm2 (Dermacentor variabilis) [%]",pest or weed control at 0.16 ppm (Ctenocephalides felis [1]) [%],pest or weed control at 0.8 ppm (Ctenocephalides felis [1]) [%],pest or weed control at 4 ppm (Ctenocephalides felis [1]) [%],"pest or weed control at 1 µg/cm2, 1 µg/cm2 (Amblyomma americanum) [%]",pest or weed control at 100 ppm (Spodoptera litura) [%],pest or weed control at 100 ppm (Plutella xylostella) [%],pest or weed control at 32 ng [2] [%],pest or weed control at 0.00016 mg [2] [%],pest or weed control at 0.0008 mg [2] [%],"pest or weed control at 0.2 µg/cm2, 0.2 µg/cm2 (Rhipicephalus sanguineus) [%]","pest or weed control at 1 µg/cm2, 1 µg/cm2 (Rhipicephalus sanguineus) [%]",pest or weed control at 100 ppm (Laodelphax striatellus) [%],"pest or weed control at 0.2 µg/cm2, 0.2 µg/cm2 (Ctenocephalides felis [3]) [%]","pest or weed control at 1 µg/cm2, 1 µg/cm2 (Ctenocephalides felis [3]) [%]","pest or weed control at 0.2 µg/cm2, 0.2 µg/cm2 (Dermacentor variabilis) [%]",pest or weed control at 0.032 ppm (Ctenocephalides felis [1]) [%],"pest or weed control at 1 µg/cm2, 1 µg/cm2 (Ixodes ricinus) [%]","pest or weed control at 5 µg/cm2, 5 µg/cm2 (Ixodes ricinus) [%]",other results
CN(C(=O)c1ccc(Cl)cc1)c1cccc(C(=O)Nc2c(I)cc(C(F)(C(F)(F)F)C(F)(F)F)cc2C(F)(F)F)c1F [Compound 60],90,95,95,95,90,≥ 70,≥ 70,100,100,100,90,90,≥ 70,95,95,–,–,–,–,"pest or weed control at 0.2 µg/cm2, 0.2 µg/cm2 (Amblyomma americanum): 90%"
COc1ccc(C(=O)N(C)c2cccc(C(=O)Nc3c(I)cc(C(F)(C(F)(F)F)C(F)(F)F)cc3C(F)(F)F)c2F)cc1 [Compound 62],90,95,95,95,90,≥ 70,≥ 70,–,100,100,–,90,≥ 70,95,95,–,–,–,–,–
O=C(Nc1cccc(C(=O)Nc2c(I)cc(C(F)(C(F)(F)F)C(F)(F)F)cc2C(F)(F)F)c1F)c1ccc(F)cc1 [Compound 63],90,95,95,95,–,≥ 70,≥ 70,–,100,100,90,90,≥ 70,–,95,90,95,90,90,"pest or weed control at 0.2 µg/cm2, 0.2 µg/cm2 (Ixodes ricinus): 90%"
CN(C(=O)c1ccc(F)cc1)c1cccc(C(=O)Nc2c(Cl)cc(C(F)(C(F)(F)F)C(F)(F)F)cc2C(F)(F)F)c1F [Compound 68],90,95,95,95,–,≥ 70,≥ 70,–,100,100,90,90,≥ 70,95,95,–,95,90,90,"pest or weed control at 0.04 µg/cm2, 0.04 µg/cm2 (Rhipicephalus sanguineus): 90%"
CN(C(=O)c1ccc(F)cc1)c1cccc(C(=O)Nc2c(Br)cc(C(F)(C(F)(F)F)C(F)(F)F)cc2OC(F)(F)F)c1F [Compound 72],90,–,95,95,–,≥ 70,≥ 70,100,100,100,90,90,≥ 70,95,95,90,–,90,90,"pest or weed control at 0.2 µg/cm2, 0.2 µg/cm2 (Ixodes ricinus): 90%; pest or weed control at 0.04 µg/cm2, 0.04 µg/cm2 (Rhipicephalus sanguineus): 90%"
CN(C(=O)c1ccc(F)c(F)c1)c1cccc(C(=O)Nc2c(I)cc(C(F)(C(F)(F)F)C(F)(F)C(F)(F)F)cc2C(F)(F)F)c1F (centres unmarked) [Compound 77],90,95,95,95,90,≥ 70,≥ 70,100,100,100,–,90,≥ 70,95,95,90,–,–,–,–
O=C(Nc1cccc(C(=O)Nc2c(I)cc(C(F)(C(F)(F)F)C(F)(F)F)cc2C(F)(F)F)c1F)c1ccc(Cl)c(Cl)c1 [Compound 80],90,95,95,95,–,≥ 70,≥ 70,–,–,100,–,90,≥ 70,–,–,90,95,–,90,–
"O=C(Nc1cccc(C(=O)Nc2c(Br)cc(C(F)(C(F)(F)F)C(F)(F)F)cc2OC(F)(F)F)c1F)c1ccc(C(F)(F)F)nc1 [Compound 99, N-(2-fluoro-3-((2-bromo-4-(perfluoropropan-2-yl)-6-(trifluoromethoxy)phenyl)carbamoyl)phenyl)-6-(trifluoromethyl)nicotinamide]",90,95,95,95,–,≥ 70,≥ 70,–,100,100,90,90,≥ 70,–,–,90,–,90,–,–
CN(C(=O)c1ccc(F)c(F)c1)c1cccc(C(=O)Nc2c(Br)cc(C(F)(C(F)(F)F)C(F)(F)F)cc2OC(F)(F)F)c1F [Compound 100],90,95,95,95,90,≥ 70,≥ 70,–,100,100,–,90,≥ 70,95,95,90,–,–,–,"pest or weed control at 0.2 µg/cm2, 0.2 µg/cm2 (Amblyomma americanum): 90%; pest or weed control at 0.04 µg/cm2, 0.04 µg/cm2 (Ctenocephalides felis [3]; dose 0.04 μg/cm^2, dead or moribund fleas after 48 h): 95%"
